Drawing on the supplement of paper PMC11616607, this text covers drug sensitivity score for 15 compounds.

One test has as its system Kuramochi. Description: drug sensitivity score (DSS) from 5-point dose-response viability curve (DSS (area-under-curve based score)); higher = more sensitive (stronger growth inhibition or killing); extreme values may be limits of the assay. To be noted: exposure time: 72 h; concentration range: 5 concentrations over 10,000-fold range. The method, boiled down:
(§1)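 Ovarian cancer and normal ovarian cell lines were tested in 384-well plates, with drugs dispensed acoustically (Echo 550) in DMSO or water at five concentrations covering a 10,000-fold range. After 1,500 cells per well were added, plates were incubated for 3 days at 37°C and 5% CO2, and viability was read by CellTiter-Glo luminescence on a PHERAstar FS. Breeze software gave a drug sensitivity score for each cell line and drug, where a higher score means greater sensitivity. A value of zero means no response.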
As to `Cc1cc(Nc2cc(N3CCN(C)CC3)nc(/C=C/c3ccccc3)n2)n[nH]1` [ENMD-2076], the drug sensitivity score is 8.5.

With `Cc1cc(C)c(CNC(=O)c2cc(-c3ccc(CN4CCOCC4)cc3)cc3c2cnn3C2CCCC2)c(=O)[nH]1` [EPZ-5687], the drug sensitivity score is 0.

With `NC(=O)/C(=C/n1cnc(-c2cc(C(F)(F)F)cc(C(F)(F)F)c2)n1)c1cncnc1` [Eltanexor], the drug sensitivity score worked out at 10.9.

`CC(C)(O)CNc1nc(Nc2ccnc(C(F)(F)F)c2)nc(-c2cccc(C(F)(F)F)n2)n1` [Enasidenib] had a drug sensitivity score of 0.

On to `COC(=O)N[C@@H](C)CNc1nccc(-c2cn(C(C)C)nc2-c2cc(Cl)cc(NS(C)(=O)=O)c2F)n1` [Encorafenib], for which the drug sensitivity score amounted to 0.

For the compound `C[C@@H]1CN(C(=O)c2ccc(NC(=O)c3cc(O[C@H](C)c4c(Cl)ccc(F)c4Cl)c(N)nn3)cc2)C[C@H](C)N1` [Ensartinib], the drug sensitivity score was 0.

Regarding `Nc1ccccc1NC(=O)c1ccc(CNC(=O)OCc2cccnc2)cc1` [Entinostat], the drug sensitivity score was 3.2.

For the compound `c1cn2cc(-c3ccc4cn[nH]c4c3)nc(Nc3ccc(N4CCOCC4)cc3)c2n1` [Entospletinib], the drug sensitivity score worked out at 0.

In turn, `CN1CCN(c2ccc(C(=O)Nc3n[nH]c4ccc(Cc5cc(F)cc(F)c5)cc34)c(NC3CCOCC3)c2)CC1` [Entrectinib] showed a drug sensitivity score of 0.

`CNC(=O)c1ccc(N2C(=S)N(c3ccc(C#N)c(C(F)(F)F)c3)C(=O)C2(C)C)cc1F` [Enzalutamide] came in with a drug sensitivity score of 1.7.

The compound `Cn1cc(C2=C(c3cn(C4CCN(Cc5ccccn5)CC4)c4ccccc34)C(=O)NC2=O)c2ccccc21` [Enzastaurin] came in with a drug sensitivity score of 0.

`NS(=O)(=O)NCCNc1nonc1/C(=N/O)Nc1ccc(F)c(Br)c1` [Epacadostat] returned a drug sensitivity score of 0.

`COc1cccc2c1C(=O)c1c(O)c3c(c(O)c1C2=O)C[C@@](O)(C(=O)CO)C[C@@H]3O[C@H]1C[C@H](N)[C@@H](O)[C@H](C)O1` [Epirubicin]: the drug sensitivity score stood at 4.6.

In the case of `CCOc1ccccc1-n1c(C(C)N2CCN(C(=O)COc3ccc(Cl)cc3)CC2)nc2ccccc2c1=O` (stereo not given) [Erastin], the drug sensitivity score came to 0.

Consider `COc1cc(OC)cc(N(CCNC(C)C)c2ccc3ncc(-c4cnn(C)c4)nc3c2)c1` [Erdafitinib], for which the drug sensitivity score turned out to be 0.

A further test concerns COV318. The description is as above. As to conditions: exposure time: 72 h; concentration range: 5 concentrations over 10,000-fold range. The method, boiled down:
as §1
`Cc1cc(Nc2cc(N3CCN(C)CC3)nc(/C=C/c3ccccc3)n2)n[nH]1` [ENMD-2076] gave a drug sensitivity score of 4.9.

For the compound `Cc1cc(C)c(CNC(=O)c2cc(-c3ccc(CN4CCOCC4)cc3)cc3c2cnn3C2CCCC2)c(=O)[nH]1` [EPZ-5687], the drug sensitivity score turned out to be 0.

Turning to `NC(=O)/C(=C/n1cnc(-c2cc(C(F)(F)F)cc(C(F)(F)F)c2)n1)c1cncnc1` [Eltanexor], the drug sensitivity score amounted to 7.5.

Regarding `CC(C)(O)CNc1nc(Nc2ccnc(C(F)(F)F)c2)nc(-c2cccc(C(F)(F)F)n2)n1` [Enasidenib], the drug sensitivity score was determined as 0.

Compound `COC(=O)N[C@@H](C)CNc1nccc(-c2cn(C(C)C)nc2-c2cc(Cl)cc(NS(C)(=O)=O)c2F)n1` [Encorafenib] displayed a drug sensitivity score of 0.

`C[C@@H]1CN(C(=O)c2ccc(NC(=O)c3cc(O[C@H](C)c4c(Cl)ccc(F)c4Cl)c(N)nn3)cc2)C[C@H](C)N1` [Ensartinib] had a drug sensitivity score of 0.

`Nc1ccccc1NC(=O)c1ccc(CNC(=O)OCc2cccnc2)cc1` [Entinostat] yielded a drug sensitivity score of 4.3.

`c1cn2cc(-c3ccc4cn[nH]c4c3)nc(Nc3ccc(N4CCOCC4)cc3)c2n1` [Entospletinib] came in with a drug sensitivity score of 0.

`CN1CCN(c2ccc(C(=O)Nc3n[nH]c4ccc(Cc5cc(F)cc(F)c5)cc34)c(NC3CCOCC3)c2)CC1` [Entrectinib] returned a drug sensitivity score of 0.

`CNC(=O)c1ccc(N2C(=S)N(c3ccc(C#N)c(C(F)(F)F)c3)C(=O)C2(C)C)cc1F` [Enzalutamide]: the drug sensitivity score worked out at 0.4.

In turn, `Cn1cc(C2=C(c3cn(C4CCN(Cc5ccccn5)CC4)c4ccccc34)C(=O)NC2=O)c2ccccc21` [Enzastaurin] registered a drug sensitivity score of 0.

With `NS(=O)(=O)NCCNc1nonc1/C(=N/O)Nc1ccc(F)c(Br)c1` [Epacadostat], the drug sensitivity score worked out at 1.

`COc1cccc2c1C(=O)c1c(O)c3c(c(O)c1C2=O)C[C@@](O)(C(=O)CO)C[C@@H]3O[C@H]1C[C@H](N)[C@@H](O)[C@H](C)O1` [Epirubicin] gave a drug sensitivity score of 0.7.

Compound `CCOc1ccccc1-n1c(C(C)N2CCN(C(=O)COc3ccc(Cl)cc3)CC2)nc2ccccc2c1=O` (stereo not given) [Erastin] registered a drug sensitivity score of 1.9.

For `COc1cc(OC)cc(N(CCNC(C)C)c2ccc3ncc(-c4cnn(C)c4)nc3c2)c1` [Erdafitinib], the drug sensitivity score came to 3.5.

Another test deals with HOSE1C. The description is as above. To be noted: exposure time: 72 h; concentration range: 5 concentrations over 10,000-fold range. The method, boiled down: as §1
The compound `Cc1cc(Nc2cc(N3CCN(C)CC3)nc(/C=C/c3ccccc3)n2)n[nH]1` [ENMD-2076] returned a drug sensitivity score of 7.7.

In turn, `Cc1cc(C)c(CNC(=O)c2cc(-c3ccc(CN4CCOCC4)cc3)cc3c2cnn3C2CCCC2)c(=O)[nH]1` [EPZ-5687] registered a drug sensitivity score of 0.

Consider `NC(=O)/C(=C/n1cnc(-c2cc(C(F)(F)F)cc(C(F)(F)F)c2)n1)c1cncnc1` [Eltanexor], for which the drug sensitivity score came out at 34.6.

`CC(C)(O)CNc1nc(Nc2ccnc(C(F)(F)F)c2)nc(-c2cccc(C(F)(F)F)n2)n1` [Enasidenib] displayed a drug sensitivity score of 0.

`COC(=O)N[C@@H](C)CNc1nccc(-c2cn(C(C)C)nc2-c2cc(Cl)cc(NS(C)(=O)=O)c2F)n1` [Encorafenib] gave a drug sensitivity score of 0.

As for `C[C@@H]1CN(C(=O)c2ccc(NC(=O)c3cc(O[C@H](C)c4c(Cl)ccc(F)c4Cl)c(N)nn3)cc2)C[C@H](C)N1` [Ensartinib], the drug sensitivity score came out at 0.5.

`Nc1ccccc1NC(=O)c1ccc(CNC(=O)OCc2cccnc2)cc1` [Entinostat] returned a drug sensitivity score of 17.3.

`c1cn2cc(-c3ccc4cn[nH]c4c3)nc(Nc3ccc(N4CCOCC4)cc3)c2n1` [Entospletinib] showed a drug sensitivity score of 0.

For `CN1CCN(c2ccc(C(=O)Nc3n[nH]c4ccc(Cc5cc(F)cc(F)c5)cc34)c(NC3CCOCC3)c2)CC1` [Entrectinib], the drug sensitivity score came to 0.1.

`CNC(=O)c1ccc(N2C(=S)N(c3ccc(C#N)c(C(F)(F)F)c3)C(=O)C2(C)C)cc1F` [Enzalutamide]: the drug sensitivity score was 0.

`Cn1cc(C2=C(c3cn(C4CCN(Cc5ccccn5)CC4)c4ccccc34)C(=O)NC2=O)c2ccccc21` [Enzastaurin] registered a drug sensitivity score of 0.2.

The compound `NS(=O)(=O)NCCNc1nonc1/C(=N/O)Nc1ccc(F)c(Br)c1` [Epacadostat] had a drug sensitivity score of 0.

For the compound `COc1cccc2c1C(=O)c1c(O)c3c(c(O)c1C2=O)C[C@@](O)(C(=O)CO)C[C@@H]3O[C@H]1C[C@H](N)[C@@H](O)[C@H](C)O1` [Epirubicin], the drug sensitivity score was 9.6.

Compound `CCOc1ccccc1-n1c(C(C)N2CCN(C(=O)COc3ccc(Cl)cc3)CC2)nc2ccccc2c1=O` (stereo not given) [Erastin] had a drug sensitivity score of 0.

In the case of `COc1cc(OC)cc(N(CCNC(C)C)c2ccc3ncc(-c4cnn(C)c4)nc3c2)c1` [Erdafitinib], the drug sensitivity score was found to be 3.2.
